Assay results as given in patent publication US20160207969A1, “CLOSTRIDIUM DIFFICILE TARGETING MOIETIES AND CONSTRUCTS COMPRISING SAID MOIETIES” (C3 Jian, Inc., priority 2014, published 2016).
Ends that are not written are not given here.

How the values were obtained:
C. difficile = experiment: MIC of antimicrobial peptides (Table 3); format: cell-based; conditions: unit not given
B. fragilis [1] = conditions: 24 h
[2] = system: C. difficile isolate CD1382 (ATCC 630, strain 1382); conditions: ATCC 630, 24 h
B. fragilis [3] = experiment: Peptide killing kinetics (CFU plating, co-culture); format: cell-based; conditions: for activity on un-targeted organism B. fragilis compared to the levels seen on C. difficile isolate 1803: killing kinetics; for surviving B. fragilis: through 2 hours of STAMP exposure
[4] = system: C. difficile isolate CD1803 (ATCC BAA-1803); conditions: ATCC BAA-1803, 24 h
L. casei = conditions: 24 h
[5] = system: C. difficile isolate CD43255 (ATCC 43255); conditions: ATCC 43255, 24 h
[6] = system: C. difficile isolate CD1875 (ATCC BAA-1875); conditions: ATCC BAA-1875, 24 h
[7] = system: C. difficile isolate 1803; conditions: Clostridium difficile, 15 min
[8] = system: C. difficile isolate CD43601 (ATCC 43601, non-toxigenic); conditions: ATCC 43601, 24 h
Trubrum = experiment: MIC of antimicrobial peptides (Table 3); format: cell-based

Row | Substance | Organism MIC (C. difficile) | MIC values (B. fragilis [1]) | MIC values [2] | activity on un-targeted organism B. fragilis compared to the levels seen on C. difficile isolate 1803 (B. fragilis [3]) | surviving B. fragilis (B. fragilis [3]) | MIC values [4] | MIC values (L. casei) | MIC values [5] | MIC values [6] | viable C. difficile recovered [7] | MIC values [8] | Organism MIC (Trubrum)
1 | FELVDWLETNLGKILKSKSA (Antimicrobial peptide) [PF-522] | C. difficile, 25 | – | – | – | – | – | – | – | – | – | – | –
2 | GNFYRLFKDILKGGGKNLRIIRKGIHIIKKY-NH2 (C-terminus assumed) [CD8040_G2_3G] | – | 62.5 µg/mL | 15.6 µg/mL | less active | did not significantly decrease | 15.6 µg/mL | >250 µg/mL | 31.3 µg/mL | 62.5 µg/mL | < 90% | 31.3 µg/mL | –
3 | GSVIKKRRKRMAKKKHRKLLKKTRIQRRRAGK [PF-527] | – | – | – | – | – | – | – | – | – | – | – | Trubrum, 25 μM
4 | LATKLKYEKEHKKMGGGGFLKFLKKFFKKLKYY-NH2 [CD0126 + AF5_4G] | – | >250 µg/mL | 15.6 µg/mL | less active | did not significantly decrease | 31.3 µg/mL | >250 µg/mL | 15.6 µg/mL | 15.6 µg/mL | < 90% | 7.8 µg/mL | –
5 | LATKLKYEKEHKKMGKIFGAIWPLALGALKNLIK-NH2 [CD0126 + Lys_A1_1G] | – | >250 µg/mL | 7.8 µg/mL | – | – | 7.8 µg/mL | >250 µg/mL | 15.6 µg/mL | 15.6 µg/mL | < 90% | 15.6 µg/mL | –
6 | LATLKKYLKEHKKMGKIFGAIWPLALGALKNLIK-NH2 [CD0126 + Lys_A1_M3] | – | >250 µg/mL | 3.9 µg/mL | – | – | 7.8 µg/mL | >250 µg/mL | 7.8 µg/mL | 7.8 µg/mL | – | 7.8 µg/mL | –
7 | LSLATFAKIFMTRSNWSLKRFNRL (Antimicrobial peptide) [PF-278] | – | – | – | – | – | – | – | – | – | – | – | Trubrum, 50 μM
8 | MIRIRSPTKKKLNRNSISDWKSNTSGRFFY (Antimicrobial peptide) [PF-283] | – | – | – | – | – | – | – | – | – | – | – | Trubrum, 50 μM
9 | MKRRRCNWCGKLFYLEEKSKEAYCCKECRKKAKKVKK (Antimicrobial peptide) [PF-307] | – | – | – | – | – | – | – | – | – | – | – | Trubrum, 50 μM
10 | MRFGSLALVAYDSAIKHSWPRPSSVRRLRM (Antimicrobial peptide) [PF-672] | – | – | – | – | – | – | – | – | – | – | – | Trubrum, 0.78 μM
11 | NILRVLKQVWKGGGKNLRIIRKGIHIIKKY-NH2 (C-terminus assumed) [CD9232_G2_3G] | – | 15.6 µg/mL | 3.9 µg/mL | less active | did not significantly decrease | 7.8 µg/mL | 125 µg/mL | 7.8 µg/mL | 31.3 µg/mL | < 90% | 7.8 µg/mL | –
12 | VLPFPAIPLSRRRACVAAPRPRSRQRAS (Antimicrobial peptide) [PF-168] | – | – | – | – | – | – | – | – | – | – | – | Trubrum, 50 μM
13 | VPAKLLRVIDEIPGGFLKFLKKFFKKLKY-NH2 [CD0714 + AF5_2G] | – | >250 µg/mL | 31.3 µg/mL | – | – | 62.5 µg/mL | >250 µg/mL | 31.3 µg/mL | 62.5 µg/mL | – | – | –
14 | VPAKLLRVIDEIPGGKIFGAIWPLALGALKNLIK-NH2 [CD0714 + Lys_A1_2G] | – | >250 µg/mL | 31.3 µg/mL | – | – | 125 µg/mL | >250 µg/mL | 62.5 µg/mL | 31.3 µg/mL | – | 15.6 µg/mL | –
15 | VPAKLLRVIDEIPKLFKFLRKHLL-NH2 [CD0714 + BD2-21_NG] | – | >250 µg/mL | 7.8 µg/mL | – | – | 15.6 µg/mL | 125 µg/mL | 7.8 µg/mL | 15.6 µg/mL | – | 3.9 µg/mL | –
16 | VPAKLLRVIKEIPGGFLKFLKKFFKKLK-NH2 [CD0714 + AF5_2G_M7] | – | >250 µg/mL | 7.8 µg/mL | – | – | 3.9 µg/mL | >250 µg/mL | 3.9 µg/mL | 15.6 µg/mL | – | 7.8 µg/mL | –
17 | VPAKLLRVIKKIPGGFLKFLKKFFKKLK-NH2 [CD0714 + AF5_2G_M4] | – | 62.5 µg/mL | 3.9 µg/mL | – | – | 7.8 µg/mL | 125 µg/mL | 7.8 µg/mL | 15.6 µg/mL | – | 3.9 µg/mL | –
18 | WSRVPGHSDTGWKVWHRW (Antimicrobial peptide) [PF-547] | – | – | – | – | – | – | – | – | – | – | – | Trubrum, 25 μM
